`CC1(C)C(=O)Nc2ccc(-c3ccc(C#N)s3)cc21` [Example 86, 5-(3,3-Dimethyl-2-oxo-2,3-dihydro-1H-indol-5-yl)-thiophene2-carbonitrile]: the melting point lay in the range of 255 to 256 °C.
For the compound `O=C1Nc2ccc(-c3ccc(F)c(Cl)c3)cc2C12CCCCC2` [Example 20, 5′-(3Chloro-4-fluorophenyl)spiro[cyclohexane-1,3′-[3H]indol]-2′(1′H)-one], the melting point fell in the range of 188 to 189 °C.
The same measure for `N#Cc1csc(-c2ccc3c(c2)C2(CCCCC2)C(=O)N3)c1` [Example 38, 5-(1′,2′-Dihydro-2′-oxospiro[cyclohexane-1,3′-[3H]indol]-5′-yl)-thiophene-3-carbonitrile]: 188 to 190 °C.
The figure for `CC1(C)C(=O)Nc2ccc(-c3coc(C#N)c3)cc21` [Example 72, 4-(3,3-Dimethyl-2-oxo-2,3-dihydro-1H-indol-5-yl)-furan-2-carbonitrile] is 199.6 to 201.4 °C; for `O=C1Cc2cc(-c3cccc([N+](=O)[O-])c3)ccc2N1` [Example 1, 5-(3-Nitro-phenyl)-1,3-dihydro-indol-2-one] it is 269 °C.
The figure for `CCC1C(=O)Nc2ccc(-c3cccc(Cl)c3)cc21` (stereo not shown) [Example 6, 5-(3-Chloro-phenyl)-3-ethyl-1,3dihydro-indol-2-one] is 118 to 120 °C; for `Cc1cc(C#N)sc1-c1ccc2c(c1)C(C)(C)C(=O)N2` [Example 69, 5(3,3-Dimethyl-2-oxo-2,3dihydro-1H-indol-5-yl)-4methyl thiophene-2-carbonitrile] it is 192.3 to 193 °C.
`O=C1Nc2ccc(-c3cc(F)cc(Cl)c3)cc2C12CCCCC2` [Example 27, 5′-(3-Chloro-5-fluorophenyl)spiro[cyclohexane-1,3′-[3H]indol]-2′(1′H)-one] returned a melting point of 178 to 180 °C.
For the compound `N#Cc1cc(F)cc(-c2cc([N+](=O)[O-])c3c(c2)C2(CCCCC2)C(=O)N3)c1` [Example 52, 3-(7′-Nitro-1′,2′-dihydro-2′-oxospiro[cyclohexane-1,3′-[3H]indol]-5′-yl)-5-fluoro-benzonitrile], the melting point came to 196 °C.
In turn, `CC1(C)C(=O)Nc2ccc(-c3cc(F)cc(Cl)c3)cc21` [Example 70, 5-(3-Chloro-5-fluoro-phenyl)-3,3-dimethyl-1,3-dihydro-indol-2-one] registered a melting point of 205.9 to 206.8 °C.
The same measure for `O=C1Nc2ccc(-c3cccc(Cl)c3)cc2C12OCCCO2` [Example 12, 5′-(3-Chlorophenyl)spiro[1,3-dioxane-2,3-[3H]indol]-2′(1′H)-one]: 242 to 244 °C.
Compound `N#Cc1cc(-c2ccc3c(c2)C2(CCCC2)C(=O)N3)ccc1F` showed a melting point of 264 to 266 °C.
The same measure for `CC1(C)C(=O)Nc2ccc(-c3cccc(Cl)c3)cc21` [Example 4, 5-(3-Chloro-phenyl)-3,3-dimethyl-1,3dihydro-indol-2-one]: 188 to 189 °C; for `O=C1Nc2ccc(-c3cccc(F)c3)cc2C12CCCCC2` [Example 21, 5′-(3-Fluorophenyl)spiro[cyclohexane-1,3′-[3H]indol]-2′(1′H)-one]: 171 to 172 °C; for `Cn1c(-c2ccc3c(c2)C2(CCCCC2)C(=O)N3)ccc1[N+](=O)[O-]` [Example 45, 5′-(5-Nitro-1-methyl-pyrrol-2-yl)spiro[cyclohexane-1,3′-[3H]indol]-2′(1′H)-one]: 210 °C.
The figure for `O=C1Nc2ccc(-c3ccc(F)c(Cl)c3)cc2C12CCCC2` [Example 76, 5′-(3-Chloro-4fluorophenyl)-spiro[cyclopentane-1,3′-[3H]indol]-2′(1′H)-one] is 202 to 204 °C; for `CCC1(CC)C(=O)Nc2ccc(-c3cccc(Cl)c3)cc21` [Example 7, 5-(3-Chloro-phenyl)-3,3-diethyl-1,3-dihydro-indol-2-one] it is 195 to 197 °C.
`O=C1Cc2cc(-c3cccc(Cl)c3)ccc2N1` [Example 10, 5-(3-Chloro-phenyl)-1,3-dihydro-indol-2-one] displayed a melting point of 169 to 171 °C.
The figure for `O=C1Nc2ccc(-c3cccc4[nH]ccc34)cc2C12CCCCC2` [Example 46, 5′-(1H-Indol-4-yl)spiro[cyclohexane-1,3′-[3H]indol]-2′(1′H)-one] is 211 to 213 °C; for `N#Cc1ccc(-c2ccc3c(c2)C2(CCCCC2)C(=O)N3)cc1F` [Example 63, 5′-(4-Cyano-3-fluorophenyl)-spiro[cyclohexane-1,3′-[3H]indol]-2′(1′H)-one] it is 258 to 260 °C; for `N#Cc1coc(-c2ccc3c(c2)C2(CCCCC2)C(=O)N3)c1` [Example 40, 5-(1′,2′-Dihydro-2′-oxospiro[cyclohexane-1,3′-[3H]indol]-5′-yl)-3-furancarbonitrile] it is 243 to 245 °C.
As for `CC1(C)C(=O)Nc2ccc(-c3cc(F)cc([N+](=O)[O-])c3)cc21` [Example 71, 5-(3-Fluoro-5-nitro-phenyl)-3,3-dimethyl-1,3-dihydro-indol-2-one], the melting point lay within 231.2 to 232.7 °C.
As for `Cc1c(-c2ccc3c(c2)C2(CCCCC2)C(=O)N3)sc2ccc(Cl)cc12` [Example 58, 5′-(5-Chloro-3-methylbenzo[b]thien-2-yl)spiro[cyclo-hexane-1,3′-[3H]indol]-2′(1′H)-one], the melting point lay within 256 to 258 °C.
With `CC1(C)C(=O)Nc2ccc(C3([N+](=O)[O-])C=CC=N3)cc21` (stereo not shown) [Example 85, 2-(3,3-Dimethyl-2-oxo-2,3-dihydro-1H-indol-5-yl)-2-nitro-pyrrole], the melting point was 293.9 to 294.2 °C (dec.).
Compound `O=C1Nc2ccc(-c3cccc(Cl)c3)cc2C12OCCO2` [Example 11, 5′-(3-Chlorophenyl)spiro[1,3-dioxolane-2,3′-[3H]indol]-2′(1′H)-one] returned a melting point of 159 to 161 °C.
The figure for `O=C1Nc2ccc(-c3cccc([N+](=O)[O-])c3)cc2C12CCCC2` [Example 13, 5′-(3-nitrophenyl)spiro[cyclopentane-1,3′-[3H]indol]2′(1′H)-one] is 238 to 240 °C; for `N#Cc1cc(F)cc(-c2cc(Br)c3c(c2)C2(CCCCC2)C(=O)N3)c1` [Example 51, 3-(7′-Bromo-1′,2′-dihydro-2′-oxospiro[cyclohexane-1,3′-[3H]indol]-5′-yl)-5-fluoro-benzonitrile] it is 217 °C.
The figure for `CC(C)(C)OC(=O)n1cccc1-c1ccc2c(c1)C(C)(C)C(=O)N2` [Example 84, 2-(3,3-Dimethyl-2-oxo-2,3-dihydro-1H-indol-5yl)-pyrrole-1-carboxylic acid tert-butyl ester] is 168.4 to 170.2 °C.
Take `CC#CC1(OC)C(=O)Nc2ccc(-c3cccc(Cl)c3)cc21` (stereo not shown) [Example 9, 5-(3-Chloro-phenyl)-3-methoxy-3-prop-1-ynyl-1,3-dihydro-indol-2-one]: the melting point is > 190 °C (dec.).
The same measure for `CC1(C)C(=O)Nc2ccc(-c3ccc(F)c(Cl)c3)cc21` [Example 66, 5-(3-Chloro-4-fluoro-phenyl)-3,3-dimethyl1,3-dihydro-indol-2-one]: 206.5 to 207.8 °C.
`CC1(C)C(=O)Nc2ccc(-c3cccc(C#N)c3F)cc21` [Example 87, 3(3,3-Dimethyl-2-oxo-2,3-dihydro-1H-indol-5-yl)-2-fluoro-benzonitrile] came in with a melting point of 270 to 272 °C.

A word on the melting point: it is the temperature, or range, at which the solid turns liquid.

The values are drawn from patent US6391907B1, “Indoline derivatives” (American Home Products Corporation, priority 1999, dated 2002).
